From BigSolDB 2.1

COc1cc(CO)ccc1O
solubility (mole fraction)
Details | in acetonitrile | in ethanol | in ethyl acetate | in isopentanol | in isopropanol | in n-butanol | in n-butyl acetate | in n-pentanol
293.15 K | 0.0172 | 0.0442 | 0.0176 | 0.0225 | 0.0284 | 0.0234 | 0.0098 | 0.0214
303.15 K | 0.0262 | 0.0627 | 0.0296 | 0.0302 | 0.0418 | 0.0393 | 0.0177 | 0.0338
313.15 K | 0.0415 | 0.0936 | 0.0393 | 0.0447 | 0.0578 | 0.0538 | 0.027 | 0.049
323.15 K | 0.0713 | 0.142 | 0.0682 | 0.0652 | 0.0957 | 0.0902 | 0.0428 | 0.0728
333.15 K | 0.127 | 0.205 | 0.1 | 0.0912 | 0.149 | 0.134 | 0.0653 | 0.102
343.15 K | 0.22 | 0.317 | 0.163 | 0.14 | 0.237 | 0.182 | 0.107 | 0.155
